The values that follow come from patent US9920012B2, “Indazole guanidine F1F0-ATPase inhibitors and therapeutic uses thereof” (Lycera Corporation, priority 2012, dated 2018).

Molecules are shown by their SMILES. Like-named read-outs stand apart in the source and are kept apart here.

The subject of test [1] is Ramos cells. The experiment in a line: Cytotoxicity in Ramos cells. Format: cell-based. The following applies: detection limit EC50=16 μM, read-out: Ramos Cell EC50. On the procedure:
(§1) Exemplary compounds described in above Examples were tested for activity against F1F0-ATPase by measuring the ability of the compounds to inhibit ATP synthesis. In addition, the compounds were assessed for cytotoxicity in Ramos cells. Inhibition of F1F0-ATPase activity in synthesizing ATP and cytotoxicity in Ramos cells were measured according to the procedures described in K. M. Johnson et al. Chemistry & Biology 2005, 12, 485-496.

The target of test [2] is T1, F1F0-ATPase (Bos taurus, UniProt P13621).
T1 construct: from tissue
In words: Inhibition of F1F0-ATPase activity in synthesizing ATP. It counts as biochemical. The following applies: inhibition of ATP synthesis; detection limit IC50=16 μM; read-out: ATP Syn IC50. On the procedure: as §1

Usually EC50 stands for the midpoint of the concentration-response curve. A word on the IC50: it is the concentration needed to halve the response being measured. Take `CCOCCNC(=NC(=O)c1cccc(Cl)c1)Nc1n[nH]c2cc(F)ccc12` [Compound A-99]: in test [1], the concentration for a half-maximal effect (EC50) fell in the range of 5 to 16 µM. Also, the IC50 in test [2] is less than 5 µM.

Take `CC(C)(C)NC(=NC(=O)c1ccc(F)c(F)c1)Nc1n[nH]c2cc(Cl)c(F)cc12` [Compound A-100]: the concentration giving a half-maximal response (EC50) in test [1] is less than 5 µM. The IC50 in test [2] was less than 5 µM.

As to `CC(C)CNC(=NC(=O)c1ccc(F)c(F)c1)Nc1n[nH]c2cc(Cl)c(F)cc12` [Compound A-101], the EC50 in test [1] was less than 5 µM. Also, the IC50 in test [2] was less than 5 µM.

Turning to `CCOCCNC(=NC(=O)c1ccc(F)c(F)c1)Nc1n[nH]c2cc(Cl)c(F)cc12` [Compound A-102], the EC50 in test [1] is less than 5 µM. Moreover, the IC50 in test [2] is less than 5 µM.

Take `COC[C@H](C)NC(=NC(=O)c1ccc(F)c(F)c1)Nc1n[nH]c2cc(Cl)c(F)cc12` [Compound A-103]: the EC50 in test [1] was less than 5 µM. Also, in test [2], the concentration for half-maximal inhibition (IC50) is less than 5 µM.

As for `CC(C)(C)NC(=NC(=O)c1cccc(Cl)c1)Nc1n[nH]c2cc(Cl)c(F)cc12` [Compound A-104], in test [1], the half-maximal effective concentration (EC50) is less than 5 µM. In addition, in test [2], the IC50 was less than 5 µM.

For the molecule `CC(C)CNC(=NC(=O)c1cccc(Cl)c1)Nc1n[nH]c2cc(Cl)c(F)cc12` [Compound A-105], the 50% effective concentration (EC50) in test [1] was 5 to 16 µM. In addition, the 50% inhibitory concentration (IC50) in test [2] was less than 5 µM.

For `CCOCCNC(=NC(=O)c1cccc(Cl)c1)Nc1n[nH]c2cc(Cl)c(F)cc12` [Compound A-106], the EC50 in test [1] (Homo sapiens) was less than 5 µM. For the same molecule, in test [2], the half-maximal inhibitory concentration (IC50) is less than 5 µM.

On to `COC[C@H](C)NC(=NC(=O)c1cccc(Cl)c1)Nc1n[nH]c2cc(Cl)c(F)cc12` [Compound A-107], for which the half-maximal effective concentration (EC50) in test [1] is less than 5 µM. Besides, the IC50 in test [2] was less than 5 µM.

In the case of `CC(C)CNC(=NC(=O)c1ccc(O)cc1)Nc1n[nH]c2cc(Cl)ccc12` [Compound A-108], in test [1], the EC50 lay within 5 to 16 µM. Moreover, the IC50 in test [2] is less than 5 µM.

`CC(C)CNC(=NC(=O)c1ccc(O)cc1)Nc1n[nH]c2cc(F)ccc12` [Compound A-109]: in test [1], the EC50 was 5 to 16 µM. Also, the half-inhibitory concentration (IC50) in test [2] was 5 to 16 µM.

For the molecule `COc1cc(F)c2c(NC(=NC(=O)c3ccc(F)c(F)c3)NC(C)(C)C)n[nH]c2c1` [Compound A-110], the EC50 in test [1] lay in the range of 5 to 16 µM. The IC50 in test [2] was less than 5 µM.

In the case of `O=C(/N=C(/Nc1cc(F)cc(Cl)c1)Nc1n[nH]c2ccccc12)c1ccc(Cl)cc1` [Compound A-111], the concentration for a half-maximal effect (EC50) in test [1] (Homo sapiens) lay within 5 to 16 µM. For the same molecule, the IC50 in test [2] is less than 5 µM.

Take `O=C(/N=C(/Nc1cc(F)cc(Cl)c1)Nc1n[nH]c2ccc(F)cc12)c1ccc(F)c(F)c1` [Compound A-112]: the EC50 in test [1] (Homo sapiens) was less than 5 µM. In addition, the IC50 in test [2] is less than 5 µM.

Consider `O=C(/N=C(/Nc1cc(F)cc(Cl)c1)Nc1n[nH]c2cccc(F)c12)c1ccc(F)c(F)c1` [Compound A-113], for which the 50% effective concentration (EC50) in test [1] (Homo sapiens) is greater than 16 µM. In addition, the IC50 in test [2] is greater than 16 µM.

As to `COC[C@H](C)N/C(=N/C(=O)c1ccc(F)c(F)c1)Nc1nn(C)c2cc(C(F)(F)F)ccc12` [Compound A-114], the concentration for a half-maximal effect (EC50) in test [1] (Homo sapiens) is greater than 16 µM. Further, the IC50 in test [2] is greater than 16 µM.

For the molecule `COC[C@H](C)N/C(=N/C(=O)c1ccc(Cl)cc1)Nc1nn(C)c2cc(C(F)(F)F)ccc12` [Compound A-115], the EC50 in test [1] (Homo sapiens) is greater than 16 µM. Also, the half-inhibitory concentration (IC50) in test [2] was greater than 16 µM.
